Results taken from patent publication US20240398784A1, “C-LINKED ISOQUINOLINE AMIDES AS LRRK2 INHIBITORS, PHARMACEUTICAL COMPOSITIONS, AND USES THEREOF” (Merck Sharp & Dohme LLC, priority 2021, published 2024).

Biological target: LRRK2 G2019S (Homo sapiens, UniProt Q5S007, G2019S)
Assay: LRRK2 G2019S Km ATP LanthaScreen assay
Assay type: biochemical
Details: read-out: LRRK2 pIC50 (converted)

Sequence of LRRK2 G2019S (Q5S007 whole entry G2019S): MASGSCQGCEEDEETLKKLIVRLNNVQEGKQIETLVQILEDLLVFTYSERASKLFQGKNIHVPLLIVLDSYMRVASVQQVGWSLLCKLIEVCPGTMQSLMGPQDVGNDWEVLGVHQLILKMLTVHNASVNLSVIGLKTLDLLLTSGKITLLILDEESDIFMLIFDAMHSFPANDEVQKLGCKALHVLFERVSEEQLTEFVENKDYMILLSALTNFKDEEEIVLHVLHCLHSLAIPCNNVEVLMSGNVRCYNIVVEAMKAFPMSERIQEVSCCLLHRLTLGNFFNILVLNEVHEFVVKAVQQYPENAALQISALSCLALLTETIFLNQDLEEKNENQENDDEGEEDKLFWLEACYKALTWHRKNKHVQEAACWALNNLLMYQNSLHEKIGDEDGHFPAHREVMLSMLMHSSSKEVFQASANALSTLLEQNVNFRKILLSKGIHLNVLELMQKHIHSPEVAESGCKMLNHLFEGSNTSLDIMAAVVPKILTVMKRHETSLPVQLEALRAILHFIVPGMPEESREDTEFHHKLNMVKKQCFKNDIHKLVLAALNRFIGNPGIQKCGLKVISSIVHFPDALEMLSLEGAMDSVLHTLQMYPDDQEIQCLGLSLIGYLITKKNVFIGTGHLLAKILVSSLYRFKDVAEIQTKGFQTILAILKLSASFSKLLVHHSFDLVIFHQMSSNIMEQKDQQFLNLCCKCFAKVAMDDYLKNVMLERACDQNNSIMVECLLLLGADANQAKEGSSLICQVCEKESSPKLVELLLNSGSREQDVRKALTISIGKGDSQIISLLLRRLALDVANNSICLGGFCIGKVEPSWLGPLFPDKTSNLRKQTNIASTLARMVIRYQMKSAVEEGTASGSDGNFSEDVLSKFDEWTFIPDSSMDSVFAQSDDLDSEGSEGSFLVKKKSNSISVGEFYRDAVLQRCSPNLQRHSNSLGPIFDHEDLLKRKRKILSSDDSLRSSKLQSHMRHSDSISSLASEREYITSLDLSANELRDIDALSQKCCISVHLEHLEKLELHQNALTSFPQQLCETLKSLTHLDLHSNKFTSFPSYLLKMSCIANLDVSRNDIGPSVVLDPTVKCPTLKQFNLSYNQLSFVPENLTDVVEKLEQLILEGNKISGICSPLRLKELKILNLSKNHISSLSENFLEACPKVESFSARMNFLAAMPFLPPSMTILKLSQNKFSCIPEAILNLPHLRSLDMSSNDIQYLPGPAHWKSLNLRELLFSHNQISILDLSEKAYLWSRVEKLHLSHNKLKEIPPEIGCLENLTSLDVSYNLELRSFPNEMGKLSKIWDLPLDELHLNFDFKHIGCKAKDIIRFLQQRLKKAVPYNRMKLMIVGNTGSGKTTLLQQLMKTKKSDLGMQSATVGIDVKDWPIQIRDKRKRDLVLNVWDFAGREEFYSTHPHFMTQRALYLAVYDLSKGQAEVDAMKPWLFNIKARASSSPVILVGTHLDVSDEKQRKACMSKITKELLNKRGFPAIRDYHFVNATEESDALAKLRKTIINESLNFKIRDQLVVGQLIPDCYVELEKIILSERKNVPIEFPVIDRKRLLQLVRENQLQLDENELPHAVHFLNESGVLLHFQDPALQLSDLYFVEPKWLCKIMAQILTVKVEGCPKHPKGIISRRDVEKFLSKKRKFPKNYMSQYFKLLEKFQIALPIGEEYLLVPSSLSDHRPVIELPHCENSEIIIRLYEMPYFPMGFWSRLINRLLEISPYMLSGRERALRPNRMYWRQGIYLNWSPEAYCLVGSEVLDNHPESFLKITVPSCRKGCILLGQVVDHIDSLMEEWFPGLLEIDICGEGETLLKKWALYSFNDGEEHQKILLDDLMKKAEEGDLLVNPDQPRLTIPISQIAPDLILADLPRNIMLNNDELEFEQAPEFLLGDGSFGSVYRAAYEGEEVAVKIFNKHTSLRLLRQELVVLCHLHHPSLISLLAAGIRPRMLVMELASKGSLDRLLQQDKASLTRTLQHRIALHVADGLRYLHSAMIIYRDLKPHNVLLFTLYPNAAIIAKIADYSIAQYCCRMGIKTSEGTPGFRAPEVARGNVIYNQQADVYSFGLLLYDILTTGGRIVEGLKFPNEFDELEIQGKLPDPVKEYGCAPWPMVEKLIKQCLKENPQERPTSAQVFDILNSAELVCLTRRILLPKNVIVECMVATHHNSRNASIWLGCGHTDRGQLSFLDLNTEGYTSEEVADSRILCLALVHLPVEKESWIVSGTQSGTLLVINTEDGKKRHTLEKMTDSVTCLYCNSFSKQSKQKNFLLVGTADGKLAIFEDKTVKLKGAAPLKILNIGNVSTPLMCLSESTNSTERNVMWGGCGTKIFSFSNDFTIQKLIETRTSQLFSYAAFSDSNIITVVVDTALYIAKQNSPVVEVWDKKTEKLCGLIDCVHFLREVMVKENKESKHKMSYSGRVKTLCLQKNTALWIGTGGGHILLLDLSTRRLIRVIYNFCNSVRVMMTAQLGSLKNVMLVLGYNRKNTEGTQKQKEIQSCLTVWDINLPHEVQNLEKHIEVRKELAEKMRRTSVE

O=C(Nc1cc2cc(C3CCC(N4CC(F)(F)C4)CC3)c(Cl)cc2cn1)C1CC1c1ccccn1 (single isomer, unassigned) [Ex-5.3, N-(7-chloro-6-(4-(3,3-difluoroazetidin-1-yl)cyclohexyl)isoquinolin-3-yl)-2-(pyridin-2-yl)cyclopropane-1-carboxamide]
IC50: 110 nM

CN(C)C1CCC2C(C(=O)Nc3cc4cc(C5CCN(C6(C)COCC6O)CC5)c(Cl)cc4cn3)C21 (single isomer, unassigned) [Ex-4.28, N-(7-chloro-6-(1-(4-hydroxy-3-methyltetrahydrofuran-3-yl)piperidin-4-yl)isoquinolin-3-yl)-2-(dimethylamino)bicyclo[3.1.0]hexane-6-carboxamide]
IC50: 0.0813 nM

Cn1cc(C2CC2C(=O)Nc2cc3cc(C4CCN(C5(C)COCC5F)CC4)c(Cl)cc3cn2)cn1 (single isomer, unassigned) [Ex-6.30, N-(7-chloro-6-(1-(4-fluoro-3-methyltetrahydrofuran-3-yl)piperidin-4-yl)isoquinolin-3-yl)-2-(1-methyl-1H-pyrazol-4-yl)cyclopropane-1-carboxamide]
IC50: 1.45 nM

CCC1C(C(=O)Nc2cc3cc(C4CC45CC5)c(Cl)cc3cn2)C1c1cnn(C)c1 (stereo not drawn) [Ex-2.98]
IC50: 15.5 nM

COC1CCC(C(=O)Nc2cc3cc(C4CCN(C5(C)COCC5O)CC4)c(Cl)cc3cn2)CC1 (single isomer, unassigned) [Ex-10.2, 1,4-trans, (3R,4R)- or 1,4-trans, (3S,4S)- or 1,4-cis, (3R,4R)- or 1,4-cis, (3S,4S)-N-(7-chloro-6-(1-(4-hydroxy-3-methyltetrahydrofuran-3-yl)piperidin-4-yl)isoquinolin-3-yl)-4-methoxycyclohexane-1-carboxamide]
IC50: 46.8 nM

CC1C(C(=O)Nc2cc3cc(C4CCN(C5(C)COCC5O)CC4)c(Cl)cc3cn2)C1c1ccccn1 (single isomer, unassigned) [Ex-4.51, N-(7-chloro-6-(1-(4-hydroxy-3-methyltetrahydrofuran-3-yl)piperidin-4-yl)isoquinolin-3-yl)-2-methyl-3-(pyridin-2-yl)cyclopropane-1-carboxamide]
IC50: 83.2 nM

CC(C)(O)C1CC1C(=O)Nc1cc2cc(C3CCN(C4(C)COCC4O)CC3)c(Cl)cc2cn1 (single isomer, unassigned) [Ex-4.9, Trans-N-(7-chloro-6-(1-(4-hydroxy-3-methyltetrahydrofuran-3-yl)piperidin-4-yl)isoquinolin-3-yl)-2-(2-hydroxypropan-2-yl)cyclopropane-1-carboxamide]
IC50: 0.151 nM

Cc1cc2cnc(NC(=O)C3CC3c3ccccn3)cc2cc1C1CCN(C2(C)COCC2F)CC1 (single isomer, unassigned) [Ex-13.3, (1R,2R or 1S,2S)-N-(6-(1-((3R,4R or 3S,4S)-4-fluoro-3-methyltetrahydrofuran-3-yl)piperidin-4-yl)-7-methylisoquinolin-3-yl)-2-(pyridin-2-yl)cyclopropane-1-carboxamide]
IC50: 0.501 nM

CC(C)(O)C1CC1C(=O)Nc1cc2cc(C3CCN(C4(C)CCOC4)CC3)c(Cl)cc2cn1 (single isomer, unassigned) [Ex-6.15, N-(7-chloro-6-(1-(3-methyltetrahydrofuran-3-yl)piperidin-4-yl)isoquinolin-3-yl)-2-(2-hydroxypropan-2-yl)cyclopropane-1-carboxamide]
IC50: 0.115 nM

CC(C)(O)C1CC1C(=O)Nc1cc2cc(C3CCN(C4(C)COCC4O)CC3)c(Cl)cc2cn1 (single isomer, unassigned) [Ex-1.21, (1R,2R or 1S,2S)-N-(7-chloro-6-(1-((3R,4R or 3S,4S)-4-hydroxy-3-methyltetrahydrofuran-3-yl)piperidin-4-yl)isoquinolin-3-yl)-2-(2-hydroxypropan-2-yl)cyclopropane-1-carboxamide]
IC50: 0.0912 nM

CC1(C)CC(C(=O)Nc2cc3cc(C4CCN(C5(C)COCC5F)CC4)c(Cl)cc3cn2)CCO1 (single isomer, unassigned) [Ex-6.38, N-(7-chloro-6-(1-(4-fluoro-3-methyltetrahydrofuran-3-yl)piperidin-4-yl)isoquinolin-3-yl)-2,2-dimethyltetrahydro-2H-pyran-4-carboxamide]
IC50: 0.871 nM

CC1(N2CCC(c3cc4cc(NC(=O)C5CC56CC6)ncc4cc3Cl)CC2)COCC1O (single isomer, unassigned) [Ex-4.5, N-(7-chloro-6-(1-(4-hydroxy-3-methyltetrahydrofuran-3-yl)piperidin-4-yl)isoquinolin-3-yl)spiro[2.2]pentane-1-carboxamide]
IC50: 0.0813 nM

CC1(N2CCC(c3cc4cc(NC(=O)C5CC5c5cccs5)ncc4cc3Cl)CC2)COCC1O (single isomer, unassigned) [Ex-4.59, N-(7-chloro-6-(1-(4-hydroxy-3-methyltetrahydrofuran-3-yl)piperidin-4-yl)isoquinolin-3-yl)-2-(thiophen-2-yl)cyclopropane-1-carboxamide]
IC50: 129 nM

N#CC1(c2ccc3cnc(NC(=O)C4CC45CCOCC5)cc3c2)CC12CC2 (single isomer, unassigned) [Ex-18.12, (R or S)-N-(6-((R or S)-1-cyanospiro[2.2]pentan-1-yl)isoquinolin-3-yl)-6-oxaspiro[2.5]octane-1-carboxamide]
IC50: 1.62 nM

CC1(N2CCC(c3cc4cc(NC(=O)C5CCC(C(F)(F)F)OC5)ncc4cc3Cl)CC2)COCC1O (stereo not drawn) [Ex-2.59]
IC50: 5.13 nM

CC1(N2CCC(c3cc4cc(NC(=O)C5C6CCCOC65)ncc4cc3Cl)CC2)COCC1O (single isomer, unassigned) [Ex-4.14, N-(7-chloro-6-(1-(4-hydroxy-3-methyltetrahydrofuran-3-yl)piperidin-4-yl)isoquinolin-3-yl)-2-oxabicyclo[4.1.0]heptane-7-carboxamide]
IC50: 0.0813 nM

COCC(C)c1cc2cc(NC(=O)C3CC3c3ccccn3)ncc2cc1Cl (single isomer, unassigned) [Ex-9.20, N-(7-chloro-6-(1-methoxypropan-2-yl)isoquinolin-3-yl)-2-(pyridin-2-yl)cyclopropane-1-carboxamide]
IC50: 29.5 nM

CC1(C)CCC(C(=O)Nc2cc3cc(C4CCC(N5CCC(F)C5)CC4)c(Cl)cc3cn2)CO1 (single isomer, unassigned) [Ex-5.17, N-(7-chloro-6-(4-(3-fluoropyrrolidin-1-yl)cyclohexyl)isoquinolin-3-yl)-6,6-dimethyltetrahydro-2H-pyran-3-carboxamide]
IC50: 5.62 nM

Cc1nn(C)cc1CC(=O)Nc1cc2cc(C3CCN(C4(C)COCC4O)CC3)c(Cl)cc2cn1 (single isomer, unassigned) [Ex-1.40, N-(7-chloro-6-(1-((3R,4R or 3S,4S)-4-hydroxy-3-methyltetrahydrofuran-3-yl)piperidin-4-yl)isoquinolin-3-yl)-2-(1,3-dimethyl-1H-pyrazol-4-yl)acetamide]
IC50: 0.112 nM

CC1(C)CC(C(=O)Nc2cc3cc(C4CCN(C5(C)COCC5F)CC4)c(Cl)cc3cn2)CCO1 (single isomer, unassigned) [Ex-6.36, N-(7-chloro-6-(1-(4-fluoro-3-methyltetrahydrofuran-3-yl)piperidin-4-yl)isoquinolin-3-yl)-2,2-dimethyltetrahydro-2H-pyran-4-carboxamide]
IC50: 0.0813 nM

CC(C)(O)C1CC1C(=O)Nc1cc2cc(C3CCN(C4(C)COC4)CC3)c(Cl)cc2cn1 (single isomer, unassigned) [Ex-22.1, (1R,2R or 1S,2S)-N-(7-chloro-6-(1-(3-methyloxetan-3-yl)piperidin-4-yl)isoquinolin-3-yl)-2-(2-hydroxypropan-2-yl)cyclopropanecarboxamide]
IC50: 4.47 nM

N#CC1(c2ccc3cnc(NC(=O)Cc4cccnc4)cc3c2)CC12CC2 (single isomer, unassigned) [Ex-1.41, (R or S)-N-(6-(1-cyanospiro[2.2]pentan-1-yl)isoquinolin-3-yl)-2-(pyridin-3-yl)acetamide]
IC50: 0.708 nM

CC1(N2CCC(c3cc4cc(NC(=O)C5CC5c5ccco5)ncc4cc3Cl)CC2)COCC1O (single isomer, unassigned) [Ex-4.66, N-(7-chloro-6-(1-(4-hydroxy-3-methyltetrahydrofuran-3-yl)piperidin-4-yl)isoquinolin-3-yl)-2-(furan-2-yl)cyclopropane-1-carboxamide]
IC50: 0.0813 nM

N#CC1(c2cc3cc(NC(=O)C4CC4)ncc3cc2F)CC12CC2 (single isomer, unassigned) [Ex-18.10, (R or S)-N-(6-(1-cyanospiro[2.2]pentan-1-yl)-7-fluoroisoquinolin-3-yl)cyclopropanecarboxamide]
IC50: 12.6 nM

Cc1cc2cnc(NC(=O)C3CC34CCOCC4)cc2cc1C1CCN(C2(C)COCC2C)CC1 (single isomer, unassigned) [Ex-15.3, N-(6-(1-(3,4-dimethyltetrahydrofuran-3-yl)piperidin-4-yl)-7-methylisoquinolin-3-yl)-6-oxaspiro[2.5]octane-1-carboxamide]
IC50: 47.9 nM

O=C(Nc1cc2cc(C3CCC(N4CC(F)C4)CC3)c(Cl)cc2cn1)C1CC1c1ccccn1 (single isomer, unassigned) [Ex-5.1, (1R,2R or 1S,2S)-N-(7-chloro-6-((cis or trans)-4-(3-fluoroazetidin-1-yl)cyclohexyl)isoquinolin-3-yl)-2-(pyridin-2-yl)cyclopropane-1-carboxamide]
IC50: 52.5 nM

CC1(N2CCC(c3cc4cc(NC(=O)[C@@H]5CCCO5)ncc4cc3Cl)CC2)COCC1O (stereo partly drawn) [Ex-2.28]
IC50: 0.513 nM

CC1(N2CCC(c3cc4cc(NC(=O)C5CC(F)(F)C5)ncc4cc3Cl)CC2)COCC1O (single isomer, unassigned) [Ex-1.18, N-(7-chloro-6-(1-((3R,4R or 3S,4S)-4-hydroxy-3-methyltetrahydrofuran-3-yl)piperidin-4-yl)isoquinolin-3-yl)-3,3-difluorocyclobutane-1-carboxamide]
IC50: 1.35 nM

Cc1cc2cnc(NC(=O)C3C4CCOCC43)cc2cc1C1CCN(C2(C)COCC2O)CC1 (stereo not drawn) [Ex-2.51]
IC50: 0.759 nM

CC(C)(O)C1CC1C(=O)Nc1cc2cc(C3CCN(C4(C)CCOC4)CC3)c(Cl)cc2cn1 (single isomer, unassigned) [Ex-6.13, N-(7-chloro-6-(1-(3-methyltetrahydrofuran-3-yl)piperidin-4-yl)isoquinolin-3-yl)-2-(2-hydroxypropan-2-yl)cyclopropane-1-carboxamide]
IC50: 5.89 nM
